Read-outs that look alike come from different tables or passages of the source.
Key:
MYB mRNA = assay: RT-qPCR splicing assay, MYB canonical junction (CJ) and alternative junction (AJ) mRNA; assay type: cell-based, human; conditions: Homo sapiens; for AC50: increase in MYB alternative junction (AJ) mRNA, read-out: MYB AJ AC50
In short: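 A673 or K562 cells were treated for 24 h at 37 °C with an 11-point 3-fold compound dilution series (top final concentration 10 uM, DMSO ≤0.25%). After lysis, one-step TaqMan RT-qPCR quantified junction transcripts, normalized to PPIA for A673 or to GAPDH/GUSB for K562.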

Target C [1] = assay: HiBiT protein abundance assay, Target C HiBiT K562 cell line; assay type: cell-based; conditions: Homo sapiens; HiBiT lytic detection, modified K562 cells, 24 hours, top dose 10 μM; read-out: Effect on protein abundance, Target C (IC50)
Description: • Promega Nano-Glo HiBiT Lytic Detection System (cat #N3030) • Corning 384-well TC-treated microplates (cat #3570) • Synthego Engineered Cells Knock-In Clones
Cells were maintained in IMDM with 10% FBS. Before the assay, cells were diluted with […] growth media (IMDM+[…] media) and were seeded in a 384-well plate at a density of 10,000 cells/well (for each cell line listed in Table 5). Each compound was prepared as a 10-point 3-fold serial dilution in DMSO with the top dose at a final concentration of 10 μM in the well. Unmodified K562 cells were added at the previously specified density with DMSO to serve as an assay baseline and positive control (PC) and DMSO only with the respective modified cell lines was added to the negative control (NC) columns. Final DMSO concentration was kept at or below 0.25%. Treated cell plates were placed in an incubator at 37° C. with […] for 24 hours. After 24 hours, 25 μL of Complete HiBit Lytic reagent was added to each well at room temperature (e.g. one plate requiring 10 mL Lytic Buffer, 100 μL LgBiT Protein, 200 μL Lytic Substrate), shaken for 5 minutes at 600 RPM, then left to sit for 10 minutes for signal to stabilize before reading on a Spark Cyto plate reader (Tecan) with a 500 ms measurement time.
To determine compound effects on protein abundance of each target in Table 5, the percent response for each respective cell line was calculated at each compound concentration as follows:
For the normalized response at each concentration, a four-parameter logistical regression was fit to the data and the response was interpolated at the […] to determine a concentration for protein abundance at […] the untreated control.

Target C [2] = assay: RT-qPCR splicing assay panel, Target C canonical junction (CJ) mRNA; assay type: cell-based, human; conditions: Homo sapiens; Table 5 panel; canonical junction qPCR; compound concentration having 50% response in CJ decrease; read-out: Target C IC50 (decrease in CJ mRNA levels)
In short: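 Read-out is canonical exon-exon junction mRNA quantified by RT-qPCR against a GAPDH, GUSB or PPIA control. Cells (A673 or K562) received compound for 24 h, top final dose 10 uM in an 11-point 3-fold series.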

[3] = Table 5 panel, canonical junction qPCR, compound concentration having 50% response in CJ decrease, read-out: MYB IC50 (decrease in CJ mRNA levels)
[4] = decrease in MYB canonical junction (CJ) mRNA, RT-qPCR, read-out: MYB CJ IC50

SMILES: Cc1cn2nc(-c3ccn4c(=O)c(C5CCNCC5)ccc4c3)cc(C)c2n1 [Compound 1181]
- IC50 (MYB mRNA; [3]): < 100 nM
- IC50 (MYB mRNA; [4]): < 100 nM
- AC50 (MYB mRNA; RT-qPCR): < 100 nM
- IC50 (Target C [1]): < 100 nM
- IC50 (Target C [2]): < 100 nM

SMILES: CNC1CCN(c2ccc3cc(-c4cc(C)c5nc(C)cn5n4)ccn3c2=O)C1 (stereo not shown) [Compound 1158]
- IC50 (MYB mRNA; [3]): 100 to 1000 nM
- IC50 (MYB mRNA; [4]): 100 to 1000 nM
- AC50 (MYB mRNA; RT-qPCR): 100 to 1000 nM
- IC50 (Target C [1]): 1000 to 10000 nM
- IC50 (Target C [2]): 1000 to 10000 nM

From patent US20250332173A1, “COMPOUNDS AND METHODS FOR MODULATING NUCLEIC ACID SPLICING” (REMIX THERAPEUTICS INC., priority 2021, published 2025)
